{
  "source": "patent US11998600B2",
  "about": "“Enhancing the therapeutic activity of an immune checkpoint inhibitor” (MaineHealth, priority 2015, dated 2024)",
  "key": {"chick embryos": {"system": "chick embryos", "assay": "Circulating Mab XL313 reactive epitope in chick embryo serum, solid-phase ELISA", "type": "in vivo", "settings": "serum collected three days after FGF-2 stimulation, FIG. 5A", "description": "Due to the differential expression and bio-distribution of the RGDKGE (SEQ ID NO. 1) epitope in angiogenic CAM tissues and its expression in macrophage-conditioned medium, it was determined whether a soluble circulating form of this RGDKGE (SEQ ID NO. 1) epitope could be generated. To examine this possibility, chick embryos were either un-treated or stimulated with FGF-2 and serum, and collected three days later. […] In contrast, a (P<0.05) 2-fold increase was detected in the levels of circulating XL313 epitope following FGF-2 stimulation. These findings indicated the differential release of a soluble form of this RGDKGE (SEQ ID NO. 1) containing collagen epitope."}, "[1]": {"system": "chick chorioallantoic membrane (CAM)", "assay": "Chick CAM inflammation assay, induction by RGD collagen peptides", "type": "in vivo", "settings": "FGF-2, absence of cortisone acetate; FIG. 5D", "description": "(§1) The chick chorioallantoic membrane (CAM) assays were carried out with some modifications (19). For all experiments CAMs of 10-day-old chick embryos obtained from Charles River (North Franklin, CT) were separated from the shell membrane. Filter discs either non-treated (inflammation assays) pretreated (angiogenesis assays) with cortisone acetate (3.0 mg/ml) containing RPMI only or FGF-2 (40 ng). CAMs were either non-treated or treated topically with Mab XL313, XL166 or a non-specific control antibody (10 μg/embryo every 24 h for three consecutive treatments). […] At the end of the incubation period the embryos were sacrificed and the CAM tissues were analyzed. Angiogenesis was quantified by counting the number of angiogenic branching blood vessels within the area of the filter disc. The angiogenic index was determined by subtracting the mean number of blood vessel branch points from untreated CAMs from each experimental condition. Eight to twelve embryos were used per condition and experiments were repeated at least three times.\nThe effects of the soluble RGD containing collagen peptides on inflammation were examined."}, "[2]": {"system": "chick chorioallantoic membrane (CAM)", "assay": "Chick CAM inflammation assay, FGF-2 induced, antibody treatment", "type": "in vivo", "settings": "FGF-2 stimulation in the absence of cortisone acetate; FIG. 3E", "description": "as §1, with “Eight to twelve embryos were used per condition and experiments were repeated at least three times.” left out\nThe chick CAM has been routinely used to assess inflammation and granulation tissue formation, which are largely dependent on infiltration of chick heterophils (the avian equivalent of neutrophils), macrophages and activated fibroblasts (36,37). To study the potential differential biological impact of RGD epitopes, FGF-2 induced inflammation was examined by carrying out similar experiments in the absence of cortisone acetate and quantifying CAM thickening. […]"}, "[3]": {"system": "chick chorioallantoic membrane (CAM)", "assay": "Macrophage infiltration of FGF-2 stimulated CAMs (KUL1 staining)", "type": "in vivo", "settings": "FGF-2 stimulation, no cortisone acetate; FIG. 3D", "description": "The chick chorioallantoic membrane (CAM) assays were carried out with some modifications (19). For all experiments CAMs of 10-day-old chick embryos obtained from Charles River (North Franklin, CT) were separated from the shell membrane. Filter discs either non-treated (inflammation assays) pretreated (angiogenesis assays) with cortisone acetate (3.0 mg/ml) containing RPMI only or FGF-2 (40 ng). CAMs were either non-treated or treated topically with Mab XL313, XL166 or a non-specific control antibody (10 μg/embryo every 24 h for three consecutive treatments). For peptide induction experiments, CAMs were stimulated with 100 ng/ml of the RGD peptides (P-1, P-2, P-C) in the presence or absence of the P38MAPK inhibitor, SB202190 (10 μM). At the end of the incubation period the embryos were sacrificed and the CAM tissues were analyzed. Angiogenesis was quantified by counting the number of angiogenic branching blood vessels within the area of the filter disc. The angiogenic index was determined by subtracting the mean number of blood vessel branch points from untreated CAMs from each experimental condition. […]\nCAMs examined for accumulation of granulation tissue were harvested, fixed in 4% PFA and paraffin embedded and sectioned (4 μm) and stained with Giemsa. CAM tissues analyzed via immunofluorescence were harvested, embedded with OCT, snap frozen and sectioned (4 μM). […]"}, "PDL-1": {"system": "PDL-1", "assay": "PDL-1 Western blot, M21 melanoma cells attached to αvβ3 ligands", "type": "cell-based, human", "settings": "immobilized epitope vs uncoated wells; 15 minute incubation; FIG. 15", "description": "FIGS. 14A and 14B are blots of integrin αvβ3 expressing melanoma cells (M21 and CLL-49) and FIG. 14C is a blot depicting that endothelial cells (HUVEC) were allowed to attach to well coated with either a non-αvβ3 binding ligand (native collagen-IV) or an αvβ3 binding ligand (denatured collagen-IV). Whole cell lysates were prepared and the relative levels of PDL-1 or loading control β-actin were assessed by Western blot.\nIntegrin αvβ3 expressing melanoma cells (M21) were seeded on control uncoated wells or wells immobilized with the XL313 cryptic collagen epitope (RGDKGE (SEQ ID NO. 1)). Following a 15 minute incubation cell lysates were prepared. The relative levels of PDL-1 or loading control β-actin were assessed by Western blot.\nIntegrin αvβ3 expressing melanoma cells M21 (FIG. 14A) and CCL-49 (FIG. 14B) and endothelial cells (HUVEC) (FIG. 14C) were attached to wells coated with either a non-αvβ3 binding ligand (native collagen-IV) or an αvβ3 binding ligand (denatured collagen-IV). Whole cell lysates were prepared and the relative levels of PDL-1 or β-actin loading control were assessed.\nIntegrin αvβ3 expressing melanoma cells (M21) were seeded onto control uncoated wells or wells immobilized with the XL313 cryptic collagen epitope (RGDKGE (SEQ ID NO. 1)) (FIG. 15). Following an incubation period, cell lysates were prepared and relative levels of PDL-1 were assessed."}},
  "data": [
    {"substance": "FGF-2: Fibroblast growth factor-2 from R&D Systems, stimulus of CAM angiogenesis and inflammation", "values": [
      {"measurement": "increase in levels of circulating XL313 epitope in serum", "setting": "chick embryos", "result": 2, "unit": "fold"},
      {"measurement": "CAMs exhibiting extensive tissue thickening", "setting": "[1]", "result": "55%-60%"},
      {"measurement": "CAMs showing robust formation of thick granulation tissue", "setting": "[2]", "result": "approximately 50%"},
      {"measurement": "macrophage infiltration of the CAMs, enhancement as compared to control", "setting": "[3]", "result": "over 2 fold"}
    ]},
    {"substance": "RGDKGE (immobilized on wells) [XL313 epitope, αvβ3 ligand]", "values": [
      {"measurement": "levels of PDL-1 protein in M21 melanoma cells on immobilized epitope", "setting": "PDL-1", "result": "enhanced levels of PDL-1 protein"}
    ]}
  ]
}
